Data set [1] has as its system Chikungunya virus. As to the kind of experiment: Evaluation of antiviral activity against Chikungunya virus (EC90). It is filed as cell-based. The following applies: Chikungunya virus, read-out: EC90 (μM) CHIKV, concentration required for 90% inhibition of CHIKV. The text has this:
EC90 refers to the concentration of the compound that is required for 90% antagonism or inhibition of CHIKV. EC90 also refers to the concentration of a substance that is required for 90% antagonism or inhibition of CHIKV in vivo.
(§1) The compounds below in Table 1 were synthesized with methods identical or analogous to those described herein. The requisite starting materials were commercially available, described in the literature, or readily synthesized by one skilled in the art of organic synthesis.

A short description of data set [2]: CC50 reported alongside the CHIKV antiviral assay (cytotoxicity). The class given is cell-based. As to conditions: cell line not given.
Description: as §1

Our source for the EC90 and CC50 values is patent US10450263B2, “Benzo annulenes as antiviral agents” (Southern Research Institute, priority 2017, dated 2019).

The term CC50 denotes the concentration that lowers cell viability or growth by half. Low values mean greater toxicity to the cells, high ones lower toxicity to the cells. In the case of `CC(C)(C)c1ccc(C(=O)Nc2cc3c(cc2OCc2ccc(C(F)(F)F)cc2)CCCCC3)cc1` [Compound 17, 4-(tert-Butyl)-N-(3-((4-(trifluoromethyl)benzyl)oxy)-6,7,8,9-tetrahydro-5H-benzo[7]annulen-2-yl)benzamide], the EC90 in data set [1] is over 30 µM. The compound further registered a CC50 in data set [2] of over 30 µM.

Regarding `COc1cc2c(cc1NC(=O)c1ccccc1C(C)(C)C)CCCCC2` [Compound 43, 2-(tert-Butyl)-N-(3-methoxy-6,7,8,9-tetrahydro-5H-benzo[7]annulen-2-yl)benzamide], the EC90 in data set [1] is 3.2 µM. In addition, in data set [2], the CC50 is over 30 µM.

On to `COc1cc2c(cc1N(C)C(=O)c1ccc(C(C)(C)C)cc1)CCCCC2` [Compound 30], for which, in data set [1], the EC90 amounted to 14.5 µM. The same compound came in with a CC50 in data set [2] of over 30 µM.

As for `COCCOc1cc2c(cc1NC(=O)c1ccc(C(C)(C)C)cc1)CCCCC2` [Compound 21, 4-(tert-Butyl)-N-(3-(2-methoxyethoxy)-6,7,8,9-tetrahydro-5H-benzo[7]annulen-2-yl)benzamide], the EC90 in data set [1] is over 30 µM. Further, the CC50 in data set [2] is over 30 µM.

On to `COc1cc2c(cc1NC(=O)c1cccc(C(C)(C)C)c1)CCCCC2` [Compound 41, 3-(tert-Butyl)-N-(3-methoxy-6,7,8,9-tetrahydro-5H-benzo[7]annulen-2-yl)benzamide], for which the EC90 in data set [1] is 34.1 µM. The compound also yielded a CC50 in data set [2] of over 30 µM.
